Entries after “also recorded” stand apart in the source; their conditions may differ.
Experiments:
mAb 35 [1] = assay: Western blot of peptide-IChBD fusion proteins probed with mAb 35; format: binding, rat; conditions: Western blot
Procedure: (§1) Chitin beads adsorbed with peptide-IChBD fusion proteins were run on an SDS-PAGE gel and transferred to a nitrocellulose membrane and assayed with the four mAbs.
(§2) Chitin beads adsorbed with peptide-IChBD fusion proteins were run on an SDS-PAGE gel and transferred to a nitrocellulose membrane and assayed with the five mAbs.
(§3) To explore the effects of individual amino acid substitutions between the Torpedo and the human AChR MIR mimics, eight peptides were prepared, each with an amino acid substituted from the human sequence into the Torpedo sequence. The single amino acid substitutions in the Torpedo MIR were: N10K (SEQ ID NO:11), L12F (SEQ ID NO:12), R66K (SEQ ID NO:13), A70D (SEQ ID NO:14), I75V (SEQ ID NO:15), R79H (SEQ ID NO:16), D111Q (SEQ ID NO:17), and K115H (SEQ ID NO:18).

mAb 132A [2] = assay: Western blot of peptide-IChBD fusion proteins probed with mAb 132A; format: binding, rat; conditions: Western blot
Procedure: as §1, §2, §3

mAb 198 = assay: Western blot of peptide-IChBD fusion proteins probed with mAb 198; format: binding, rat; conditions: for mAb 198 binding, result in words: Western blot; for mAb 198 binding compared to its binding to the human 39MIR: human 39MIR mutants, relative to human 39MIR
Description: as §1, §2
The Torpedo (SEQ ID NO:9) and human (SEQ ID NO:8) 39MIRs were made by joining the α(1-12), α(65-79), and α(110-115) segments of their respective a subunits with GS linkers. These two MIR mimics were expressed in E. coli as fusion proteins with an IChBD tag to permit peptide collection on chitin beads. These two peptides differ from each other by eight amino acids (FIG. 2). Both mimics were probed with mAb 198. mAb 198, which was derived from rats that had been immunized with human muscle AChR, is a MIR-directed mAb that binds mammalian as well as Torpedo MIR (13,21). It was also able to passively transfer EAMG to rats and binds to both native assembled AChR and to α-subunit fragments in Western blots (22,23). mAb 198 binds to the Torpedo and human MIR peptide mimics in Western blots (FIG. 3). However, mAb 198 binds to the Torpedo mimic about 50 times more strongly than to the human MIR mimic (FIG. 3).
as §3

mAb 35 [3] = assay: Western blot of peptide-IChBD fusion proteins probed with mAb 35; format: binding, rat; parameters: key to mAb 35, fold-change in binding relative to Torpedo 39MIR: ‘—’ denotes no binding; conditions: for mAb 35 binding compared to the Torpedo 39MIR peptide: single point mutated human 39MIR peptides; for mAb 35 binding compared to the Torpedo 39 MIR: human 39MIR triple and quadruple mutants, FIG. 7
mAb 132A [4] = assay: Western blot of peptide-IChBD fusion proteins probed with mAb 132A; format: binding, rat; parameters: key to mAb 132A, fold-change in binding relative to Torpedo 39MIR: ‘—’ denotes no binding; conditions: for mAb 132A binding compared to the Torpedo 39 MIR: human 39MIR triple and quadruple mutants, FIG. 7
[5] = tested on: antibodies in human MG serum samples; assay: Dot blot of His-tagged peptides against human MG serum samples; format: binding
Description: Sample were obtained from either normal subjects (i.e., without a diagnosis of myasthenia gravis (MG)) or subjects diagnosed with MG. Samples were contacted with the Torpedo 39MIR peptide (SEQ ID NO:9), the human 39MIR peptide (SEQ ID NO:8), the K10N/V75I/[…] human 39MIR triple mutant (SEQ ID NO:26), or the K10N/D70A/V75I/Q111D human 39MIR quadruple mutant (SEQ ID NO:27).
His-tagged variants of the Torpedo 39MIR, human 39MIR, […] triple mutant, and K10N/D70A/V75I/Q111D quadruple mutant peptides were expressed and probed for binding to antibodies in human MG serum samples. The peptides were dot-blotted onto a membrane and probed for binding to antibodies in our human MG serum library. […] None of the His-tagged peptides bound any antibodies in normal human serum samples (FIG. 11). Although the triple mutant peptide (SEQ ID NO:26) bound better overall to mAb 35, mAb 132A, and mAb 198, the quadruple mutant peptide (SEQ ID NO:27) was better for binding antibodies in MG sera.

[6] = Table 2, Western blot of FIG. 7, human 39MIR multiple mutants
[7] = Table 3, single-substitution human 39MIR mutants

Sequence | mAb 35 binding, result in words (mAb 35 [1]) | mAb 132A binding, result in words (mAb 132A [2]) | mAb 198, fold-change in binding relative to Torpedo 39MIR (mAb 198; [6]) [fold-change] | mAb 198 binding, result in words (mAb 198) | mAb 35, fold-change in binding relative to Torpedo 39MIR (mAb 35 [3]; [6]) | mAb 132A, fold-change in binding relative to Torpedo 39MIR (mAb 132A [4]; [6]) | mAb 198, fold-change in binding relative to Torpedo 39MIR (mAb 198; [7]) [fold-change] | mAb 198 binding compared to its binding to the human 39MIR (mAb 198) [×] | mAb 35, fold-change in binding relative to Torpedo 39MIR (mAb 35 [3]; [7]) | mAb 35 binding compared to the Torpedo 39MIR peptide (mAb 35 [3]) | mAb 132A, fold-change in binding relative to Torpedo 39MIR (mAb 132A [4]; [7]) | binding to antibodies in human MG serum samples ([5]; FIG. 11) | binding to antibodies in human MG serum samples ([5]; FIG. 11, listed as SEQ ID NO:27) | binding to antibodies in human MG serum samples ([5]; FIG. 11, listed as quadruple mutant peptide) | mAb 35 binding compared to the Torpedo 39 MIR (mAb 35 [3]) [×] | mAb 132A binding compared to the Torpedo 39 MIR (mAb 132A [4]) [×] | mAb 198 binding compared to the Torpedo 39 MIR (mAb 198; human 39MIR triple mutant, FIG. 7) [×] | binding to antibodies in human MG serum samples ([5]; FIG. 11, listed as K10N/N75I/Q111D)
SEHETRLVAKLFGGGSLKWNPDDYGGIKKIHGSLDYTGH (synthetic main immunogenic region (MIR) peptide) [V75I/Q111D, Human MIR double mutant (V75I/Q111D)] | restored binding | restored binding | 2.71 | restored binding | 0.92 fold-change | 3.34 fold-change |  |  |  |  |  |  |  |  |  |  |  | 
SEHETRLVAKLFGGGSLKWNPDDYGGVKKIHGSLDYTGH [Q111D] (synthetic main immunogenic region (MIR) peptide) [Mutant Q111D, Human 39MIR single mutant (Q111D)] | restored mAb 35 binding |  |  |  |  |  | 0.59 | 35.7 | 0.06 fold-change | 0.06 | — |  |  |  |  |  |  | 
SEHETRLVAKLFGGGSLKWNPDDYGGVKKIHGSLQYTGH (synthetic main immunogenic region (MIR) peptide) [Human 39MIR] | does not bind; also recorded: not recognized; also recorded: did not bind | does not bind; also recorded: not recognized; also recorded: did not bind | 0.09 | binds; also recorded: recognized; also recorded: able to bind | — | — | 0.02 |  | — |  | — | did not bind any antibodies |  |  |  |  |  | 
SEHETRLVANLFGGGSLKWNPADYGGIKKIHGSLDYTGH (synthetic main immunogenic region (MIR) peptide) [K10N/D70A/V75I/Q111D, Human 39MIR quadruple mutant (K10N/D70A/V75I/Q111D)] |  |  | 0.99 |  | 1.70 fold-change | 0.99 fold-change |  | 11 |  |  |  | bound antibodies in the human sera | a fraction of Abs in MG patient sera | able to bind antibodies in all of our human MG serum samples | 1.70 | 0.99 |  | 
SEHETRLVANLFGGGSLKWNPADYGGVKKIHGSLQYTGH (synthetic main immunogenic region (MIR) peptide) [K10N/D70A, Human 39MIR double mutant (K10N/D70A)] | restored binding | restored binding | 0.72 | restored binding | 0.31 fold-change | 0.16 fold-change |  |  |  |  |  |  |  |  |  |  |  | 
SEHETRLVANLFGGGSLKWNPDDYGGIKKIHGSLDYTGH (synthetic main immunogenic region (MIR) peptide) [K10N/V75I/Q111D, Human 39MIR triple mutant (K10N/V75I/Q111D)] | improved binding |  | 2.52 | improved binding | 2.97 fold-change | 2.46 fold-change |  | 28 |  |  |  | only bound antibodies in one MG serum sample |  |  | 2.97 | 2.46 | 2.52 | bound antibodies in the human sera
SEHETRLVANLFGGGSLKWNPDDYGGIKKIHGSLQYTGH (synthetic main immunogenic region (MIR) peptide) [K10N/V75I, Human 39MIR double mutant (K10N/V75I)] | restored binding | restored binding | 1.79 | restored binding | 1.10 fold-change | 1.25 fold-change |  |  |  |  |  |  |  |  |  |  |  | 
SEHETRLVANLFGGGSLKWNPDDYGGVKKIHGSLDYTGH (synthetic main immunogenic region (MIR) peptide) [K10N/Q111D, Human 39MIR double mutant (K10N/Q111D)] | restored binding | restored binding | 1.19 | restored binding | 2.31 fold-change | 1.07 fold-change |  |  |  |  |  |  |  |  |  |  |  | 
SEHETRLVANLFGGGSLKWNPDDYGGVKKIHGSLQYTGH (synthetic main immunogenic region (MIR) peptide) [Mutant K10N, Human 39MIR single mutant (K10N)] | restored mAb 35 binding |  |  |  |  |  | 0.23 | 13 | 0.01 fold-change | 0.01 | — |  |  |  |  |  |  | 
